In patent US7695930B2, “Method for the detection, identification and/or quantification of microoganisms with peptidase activity using phenoxazinone derivatives as enzyme substrates” (Biomerieux, priority 2003, dated 2010):

Experiments:
Assay type in all cases: cell-based
Settings in all cases: 50 mg/l
Serratia marcescens = test: Leucine-peptidase detection on agar medium (Example 11)
Procedure: (§1) The detection medium was prepared by mixing 1.4 g of biogelytone (bioMérieux), 0.84 g of meat extract (bioMérieux), 2.24 g of NaCl (Merck), 280 μl of a solution of IPTG (isopropylthio-β-D-galactopyranoside, BIOSYNTH) in water (concentration 10 g/l) and 4.2 g of European agar (bioMérieux).
(§2) The substrate of the invention obtained in Example 2, in which the amino acid is leucine (leucine-9-aminobenzo[a]phenoxazin-5-one or Leu-ABP), or else a substrate of the prior art, which is leucine-aminomethylcoumarin (Leu-AMC, BACHEM), was then added in the following way: 280 ml of osmosed water were added to the medium, and the mixture was melted in a waterbath at 100° C. The mixture was autoclaved for 15 min at 121° C. and cooled to 50° C. in a waterbath.
(§3) The medium was then poured into Petri dishes.
(§4) The coloration of these colonies, the diffusion, and also the intensity of this coloration were noted.
(§5) The results were expressed as intensity of coloration using an arbitrary scale ranging from 0 to 4 as a basis and also as diffusion also using an arbitrary scale ranging from 0 to 4 as a basis.

Candida albicans [1] = test: as above
Procedure: as §1, §2, §3, §4, §5

Enterobacter cloaccae = test: as above
Procedure: as §1, §2, §3, §4, §5

Klebsellia pneumoniae = test: as above
Procedure: as §1, §2, §3, §4, §5

Staphylococcus aureus = test: as above
Procedure: as §1, §2, §3, §4, §5

Enterococcus faecalis [2] = test: as above
Procedure: as §1, §2, §3, §4, §5

Escherichia coli [3] = test: as above
Procedure: as §1, §2, §3, §4, §5

Citrobacter freundii = test: as above
Procedure: as §1, §2, §3, §4, §5

Pseudomonas aeruginosa = test: as above
Procedure: as §1, §2, §3, §4, §5

Saccharomyces cerevisiae = test: Prolyl-peptidase detection on agar medium (Example 12)
Procedure: (§6) The detection media were prepared by mixing 1.68 g of yeast extract (bioMérieux), 1.4 g of biocase (bioMérieux), 1.26 g of malt extract (bioMérieux), 0.08 g of glucose (Merck) and 3.92 g of agar (bioMérieux).
(§7) 280 ml of osmosed water were added to the powder, and the mixture was then melted in a waterbath at 100° C. The product was separated into two flasks, each of 140 ml. Autoclaving was carried out at 121° C. for 15 min and the product was cooled to 50° C. in a waterbath.
(§8) L-Prolyl-7-amino-4-methylcoumarin (Pro-AMC, Bachem) was then added to the first flask as a control and L-prolyl-9-aminobenzo[a]phenoxazin-5-one (Pro-ABP, substrate of the invention obtained in Example 2, in which the amino acid is L-Proline) was then added to the second flask at the final concentration of 50 mg/l.
(§9) The size of the colonies, their coloration and also the intensity of this coloration were noted.

Klebsiella pneumoniae = test: as above
Procedure: as §6, §7, §8, §9

Candida albicans [4] = test: as above
Procedure: as §6, §7, §8, §9

Enterococcus faecalis [5] = test: as above
Procedure: as §6, §7, §8, §9

Trichosporon beigelii = test: as above; for color of the colony: key: B corresponds to fluorescent blue; R corresponds to pink
Procedure: as §6, §7, §8, §9

Escherichia coli [6] = test: as above
Procedure: as §6, §7, §8, §9

Candida tropicalis = test: as above
Procedure: as §6, §7, §8, §9

Candida glabrata = test: as above
Procedure: as §6, §7, §8, §9

Candida guilliermondii = test: as above; for color of the colony: key: B corresponds to fluorescent blue; R corresponds to pink
Procedure: as §6, §7, §8, §9
Throughout, for color of the colony: key: B corresponds to fluorescent blue; R corresponds to pink.

Cc1cc(=O)oc2cc(NC(=O)[C@@H](N)CC(C)C)ccc12 [Leu-AMC, leucine-aminomethylcoumarin, reference compound]
growth diameter (Serratia marcescens; 24 h): 0.5 mm
intensity of coloration, scale 0 to 4 (Serratia marcescens; 24 h): 2
growth diameter (Serratia marcescens; 48 h): 0.7 mm
intensity of coloration, scale 0 to 4 (Serratia marcescens; 48 h): 3
growth diameter (Candida albicans [1]; 24 h): 0.4 mm
intensity of coloration, scale 0 to 4 (Candida albicans [1]; 24 h): 0.25
growth diameter (Candida albicans [1]; 48 h): 0.5 mm
intensity of coloration, scale 0 to 4 (Candida albicans [1]; 48 h): 1.5
growth diameter (Enterobacter cloaccae; 24 h): 0.8 mm
intensity of coloration, scale 0 to 4 (Enterobacter cloaccae; 24 h): 3
growth diameter (Enterobacter cloaccae; 48 h): 0.8 mm
intensity of coloration, scale 0 to 4 (Enterobacter cloaccae; 48 h): 3
growth diameter (Klebsellia pneumoniae; 24 h): 1.8 mm
intensity of coloration, scale 0 to 4 (Klebsellia pneumoniae; 24 h): 3
growth diameter (Klebsellia pneumoniae; 48 h): 1.8 mm
intensity of coloration, scale 0 to 4 (Klebsellia pneumoniae; 48 h): 3
growth diameter (Staphylococcus aureus; 24 h): 1.7 mm
intensity of coloration, scale 0 to 4 (Staphylococcus aureus; 24 h): 2.5
growth diameter (Staphylococcus aureus; 48 h): 1.7 mm
intensity of coloration, scale 0 to 4 (Staphylococcus aureus; 48 h): 3
growth diameter (Enterococcus faecalis [2]; 24 h): 0.4 mm
intensity of coloration, scale 0 to 4 (Enterococcus faecalis [2]; 24 h): 0.5
growth diameter (Enterococcus faecalis [2]; 48 h): 0.4 mm
intensity of coloration, scale 0 to 4 (Enterococcus faecalis [2]; 48 h): 1.5
growth diameter (Escherichia coli [3]; 24 h): 1.8 mm
intensity of coloration, scale 0 to 4 (Escherichia coli [3]; 24 h): 3
growth diameter (Escherichia coli [3]; 48 h): 1.8 mm
intensity of coloration, scale 0 to 4 (Escherichia coli [3]; 48 h): 3
growth diameter (Citrobacter freundii; 24 h): 0.8 mm
intensity of coloration, scale 0 to 4 (Citrobacter freundii; 24 h): 3
growth diameter (Citrobacter freundii; 48 h): 1 mm
intensity of coloration, scale 0 to 4 (Citrobacter freundii; 48 h): 3
growth diameter (Pseudomonas aeruginosa; 24 h): 2 mm
intensity of coloration, scale 0 to 4 (Pseudomonas aeruginosa; 24 h): 1
growth diameter (Pseudomonas aeruginosa; 48 h): 2 mm
intensity of coloration, scale 0 to 4 (Pseudomonas aeruginosa; 48 h): 3

L-prolyl-9-aminobenzo[a]phenoxazin-5-one [Pro-ABP]
growth diameter (Saccharomyces cerevisiae; 24 h): 0.5 mm
growth diameter (Saccharomyces cerevisiae; 48 h): 2 mm
growth diameter (Klebsiella pneumoniae; 24 h): 2 mm
color of the colony (Candida albicans [4]; 24 h): R
growth diameter (Candida albicans [4]; 24 h): 0.8 mm
intensity of coloration, scale 0 to 4 (Candida albicans [4]; 24 h): 2
color of the colony (Candida albicans [4]; 48 h): R
growth diameter (Candida albicans [4]; 48 h): 2.5 mm
intensity of coloration, scale 0 to 4 (Candida albicans [4]; 48 h): 2
growth diameter (Enterococcus faecalis [5]; 24 h): 0.7 mm
growth diameter (Enterococcus faecalis [5]; 48 h): 0.7 mm
growth diameter (Trichosporon beigelii; 24 h): 0.5 mm
color of the colony (Trichosporon beigelii; 48 h): R
growth diameter (Trichosporon beigelii; 48 h): 1.8 mm
intensity of coloration, scale 0 to 4 (Trichosporon beigelii; 48 h): 2
color of the colony (Escherichia coli [6]; 24 h): R
growth diameter (Escherichia coli [6]; 24 h): 3 mm
intensity of coloration, scale 0 to 4 (Escherichia coli [6]; 24 h): 0.25
color of the colony (Escherichia coli [6]; 48 h): R
growth diameter (Escherichia coli [6]; 48 h): 3 mm
intensity of coloration, scale 0 to 4 (Escherichia coli [6]; 48 h): 3
growth diameter (Candida tropicalis; 24 h): 1.2 mm
growth diameter (Candida tropicalis; 48 h): 1.8 mm
growth diameter (Candida glabrata; 24 h): 0.4 mm
growth diameter (Candida glabrata; 48 h): 1.8 mm
growth diameter (Candida guilliermondii; 24 h): 0.3 mm
color of the colony (Candida guilliermondii; 48 h): R
growth diameter (Candida guilliermondii; 48 h): 1.8 mm
intensity of coloration, scale 0 to 4 (Candida guilliermondii; 48 h): 2

Cc1cc(=O)oc2cc(NC(=O)[C@@H]3CCCN3)ccc12 [Pro-AMC, L-Prolyl-7-amino-4-methylcoumarin, reference compound]
growth diameter (Saccharomyces cerevisiae; 24 h): 0.3 mm
growth diameter (Saccharomyces cerevisiae; 48 h): 1.7 mm
growth diameter (Klebsiella pneumoniae; 24 h): 2.5 mm
intensity of coloration, scale 0 to 4 (Klebsiella pneumoniae; 24 h): 0.25
growth diameter (Klebsiella pneumoniae; 48 h): 3 mm
intensity of coloration, scale 0 to 4 (Klebsiella pneumoniae; 48 h): 0.25
growth diameter (Candida albicans [4]; 24 h): 1.2 mm
intensity of coloration, scale 0 to 4 (Candida albicans [4]; 24 h): 2
growth diameter (Candida albicans [4]; 48 h): 2.5 mm
intensity of coloration, scale 0 to 4 (Candida albicans [4]; 48 h): 3
growth diameter (Enterococcus faecalis [5]; 24 h): 0.8 mm
growth diameter (Enterococcus faecalis [5]; 48 h): 1.2 mm
growth diameter (Trichosporon beigelii; 24 h): 0.7 mm
intensity of coloration, scale 0 to 4 (Trichosporon beigelii; 24 h): 0.25
growth diameter (Trichosporon beigelii; 48 h): 3 mm
intensity of coloration, scale 0 to 4 (Trichosporon beigelii; 48 h): 2
growth diameter (Escherichia coli [6]; 24 h): 3 mm
intensity of coloration, scale 0 to 4 (Escherichia coli [6]; 24 h): 0.5
growth diameter (Escherichia coli [6]; 48 h): 3 mm
intensity of coloration, scale 0 to 4 (Escherichia coli [6]; 48 h): 0.5
growth diameter (Candida tropicalis; 24 h): 1.2 mm
growth diameter (Candida tropicalis; 48 h): 2 mm
growth diameter (Candida glabrata; 24 h): 0.3 mm
growth diameter (Candida glabrata; 48 h): 1.7 mm
growth diameter (Candida guilliermondii; 24 h): 0.4 mm
growth diameter (Candida guilliermondii; 48 h): 1.8 mm
intensity of coloration, scale 0 to 4 (Candida guilliermondii; 48 h): 3
